Reference: US6677431B2, “Design, preparation, and properties of antibacterial β-peptides” (The Trustees of the University of Pennsylvania, priority 1999, dated 2004)
Like-named read-outs stand apart in the source and are kept apart here. No end group written: not given here.

Tests used:
[1] = In LB medium (data from Oh et al.); cited from earlier work
K91 E. coli = assay type: cell-based; settings: K91, 9 h, pH 7.4
Experimental: (§1) The biological activities of these peptides were measured using human erythrocytes and E. coli as models for mammalian and bacterial cells, respectively. Hemolysis was monitored in 10 mM Tris, 150 mM NaCl, pH 7.0, while the bacterial assay was conducted in minimal media M9 (Table 1); both of these solutions are sufficiently transparent to allow CD and ultracentrifugation measurements (supplementary material). Under the assay conditions, the peptides gave CD spectra similar to those in Tris buffer, with the exception of H-(β^3-HLeu-β^3-HLys-β^3-HLeu)n-OH, n=5 and 6.
Antibacterial assay was performed by incubation of K 91 E. coli and peptide of different concentrations in minimal media, at pH 7.4. The peptide solution (50 μL) and K 91 E. coli culture (20 μL, grown in minimal media for 24 hr-36 hr) were mixed with 1 mL minimal media. […] The peptide dose required for 50% suppress of bacterial growth was obtained from the smooth fitted OD600 vs. log[peptide] curve.
(§2) The activity and selectivity of peptide 1 and peptide 2 were examined by antibacterial assay and hemolysis experiments. E. Coli and human erythrotytes (RBC) were used as models for bacterial cell and mammalian cell, respectively. The peptide concentration required for 50% bacterial growth suppression (IC50), and peptide concentration required for 50% RBC lysis (HD50) are listed in Table 3. […] The antibacterial activities of peptide 1 and peptide 2 are about the same except peptide 2 has slightly lower IC50. Similar trend has been observed in the previous study, that longer peptide tends to have higher activity. However, the difference in IC50 is much smaller for this series of peptide than the previously studied ones. Antibacterial peptide with good selectivity is usually represented by its low hemolysis ability. […] The HD50 is 670 μM for peptide 1 and 240 μM for peptide 2, which gives a selectivity of 111 for peptide 1 and 60 for peptide 2.

[2] = Hemolysis assay, 50% lysis of RBC's; assay type: cell-based, human; settings: 0.25% suspension of human erythrocytes (RBCs)
Experimental: as §1
(§3) ∇in M9 medium (data from Hamuro et al., ref. 5) # In M9 medium.+Hemolysis experiments were performed by incubating a 0.25% suspension of human RBc's in 10 mM Tris buffer containing […] at pH 7.0 with varying amounts of peptide. The hemolytic dose required to lyse 50% of the RBC's is reported as the HD50.
(§4) Hemolysis experiments were carried out by incubating 0.25% suspension of human erythrocytes (RBC's) with peptides of different concentrations in 150 mM sodium choloride, 10 mM Tris buffer, pH 7.0. The sample was prepared by combining 400 μL of the RBC suspension and […] of the peptide solution. After incubated the sample at 37— C. for 1 hour, the sample was centrifuged at 14,000 rpm for 5 min, and the OD414 of the supernatant was measured. Mellitin (50 μM) was used to get 100% hemolysis. The hemolytic IC50 was obtained by plotting hemolysis percentage vis. peptide concentration, and the concentration required for 50% hemolysis was determined from the smooth curve-fitted graph.
as §2

[3] = system: human erythrocytes (RBC's); test: Hemolysis assay, 50% lysis of RBC's; assay type: cell-based; settings: pH 7
Experimental: as §1, §3, §4, §2

micF-lux fusion = test: Stress-induced response assay, induction of micF-lux fusion; assay type: cell-based; settings: Table 4; regulatory gene Rob
Experimental: (§5) Stress-induced response and growth inhibition assays were carried out on samples of four of the β-peptide and compared to known polycationic peptides.
(§6) Polymyxin B was tested both rich, LB, medium and defined, M9, medium. The other natural peptides were tested in LB medium.
(§7) The β-peptides were tested in M9 medium. * In LB medium (data from Oh et al. Biochem. Biophys. Acta. 2000,1463: 43-54)
(§8) However, similar to the magainins, no induction of the micF-lux fusion was observed. Also, the minimum inhibitory concentrations (MIC's) were determined to be higher than those reported in the published manuscript.
(§9) Samples of these β-peptides 1 and 2 were evaluated in the stress-induced response assays.
(§10) The biolumenescence data result from test carried out according to U.S. Pat. No. 5,683,868, Highly Sensitive Method For Detecting Environmental Insults, issued Nov. 4, 1997 to LaRossa et al., the entire contents of the disclosure of are hereby incorporated by reference, The tests described in this patent permit antibacterial properties of peptides or any other materials to be assessed. […] Along these lines, FIG. 5 illustrates a relationship between relative light units and minutes of exposure of bacteria to the various materials in the legend. P×B represents polymyxin, a known antibacterial material. In the graph, a decrease in RULs corresponds to a decrease in bacteria. […]

osmY-lux fusion = test: Stress-induced response assay, induction of osmY-lux fusion; assay type: cell-based; settings: Table 4; stress sensed osmotic shock
Experimental: as §5, §6, §7, §8, §9, §10

Row | Compound | MIC* [1] | IC50 (K91 E. coli) | HC50 at 1 h ([2]; human, pH 7) | also measured
1 | Cecropin A (KWKLFKKIEKVGQNIRDGIIKAGPAVAVVGQATQIAK; ends and bridges not checked; UniProt P01507 27-63, looked up) [known polycationic natural peptide] | 0.1 µM |  |  | 
2 | Polymyxin E | 0.15 µM |  |  | 
3 | CC(C)C[C@@H](CC(=O)O)NC(=O)C[C@H](CCCCN)NC(=O)C[C@@H](NC(=O)C[C@H](CC(C)C)NC(=O)C[C@H](CCCCN)NC(=O)C[C@@H](NC(=O)C[C@H](CC(C)C)NC(=O)C[C@H](CCCCN)NC(=O)C[C@@H](N)C(C)C)C(C)C)C(C)C [H-(β^3-HVal-β^3-HLys-β^3-HLeu)3-OH, H-(b^3-HVal-b^3-HLys-b^3-HLeu)3-OH] |  | 41 µM |  | HC50 at 1 h ([2]; 0.25% human erythrocytes, 10 mM Tris, 150 mM NaCl, pH 7.0, 1 h at 37° C., read-out: Hemolysis HD50): 86 µM
4 | CC(C)C[C@@H](CC(=O)O)NC(=O)C[C@H](CCCCN)NC(=O)C[C@@H](NC(=O)C[C@H](CC(C)C)NC(=O)C[C@H](CCCCN)NC(=O)C[C@@H](NC(=O)C[C@H](CC(C)C)NC(=O)C[C@H](CCCCN)NC(=O)C[C@@H](NC(=O)C[C@H](CC(C)C)NC(=O)C[C@H](CCCCN)NC(=O)C[C@@H](NC(=O)OCC1c2ccccc2-c2ccccc21)C(C)C)C(C)C)C(C)C)C(C)C [Fmoc-(β^3-HVal-β^3-HLys-β^3-HLeu)4-OH, Fmoc-(b^3-HVal-b^3-HLys-b^3-HLeu)4-OH] |  | 1.5 µM | 0.31 µM | 
5 | CC(C)C[C@H](N)CC(=O)N[C@@H](CCCCN)CC(=O)N[C@H](CC(=O)N[C@H](CC(=O)N[C@@H](CCCCN)CC(=O)N[C@H](CC(=O)N[C@H](CC(=O)N[C@@H](CCCCN)CC(=O)N[C@H](CC(=O)N[C@H](CC(=O)N[C@@H](CCCCN)CC(=O)N[C@H](CC(=O)N[C@H](CC(=O)N[C@@H](CCCCN)CC(=O)N[C@H](CC(=O)O)CC(C)C)CC(C)C)CC(C)C)CC(C)C)CC(C)C)CC(C)C)CC(C)C)CC(C)C)CC(C)C [H-(β^3-HLeu-β^3-HLys-β^3-HLeu)5-OH, H-(b^3-HLeu-b^3-HLys-b^3-HLeu)5-OH] |  |  | 0.23 µM | HD50+ [3]: 0.23 µM
6 | Polymyxin [reference compound] |  |  |  | micF gene fusion response (micF-lux fusion): yes; osmY gene fusion response (osmY-lux fusion): yes
7 | CC(C)C[C@@H](CC(=O)O)NC(=O)C[C@H](CCCCN)NC(=O)C[C@@H](NC(=O)C[C@H](CC(C)C)NC(=O)C[C@H](CCCCN)NC(=O)C[C@@H](NC(=O)OCC1c2ccccc2-c2ccccc21)C(C)C)C(C)C [Fmoc-(β^3-HVal-β^3-HLys-β^3-HLeu)2-OH, Fmoc-(b^3-HVal-b^3-HLys-b^3-HLeu)2-OH] |  | > 100 µM | > 100 µM | 
8 | CC(C)C[C@@H](CC(=O)O)NC(=O)C[C@H](CCCCN)NC(=O)C[C@@H](NC(=O)C[C@H](CC(C)C)NC(=O)C[C@H](CCCCN)NC(=O)C[C@@H](NC(=O)C[C@H](CC(C)C)NC(=O)C[C@H](CCCCN)NC(=O)C[C@@H](NC(=O)C[C@H](CC(C)C)NC(=O)C[C@H](CCCCN)NC(=O)C[C@@H](N)C(C)C)C(C)C)C(C)C)C(C)C [H-(β^3-HVal-β^3-HLys-β^3-HLeu)4-OH, H-(b^3-HVal-b^3-HLys-b^3-HLeu)4-OH] |  | 2.1 µM | 4.2 µM | 
9 | Polymyxin B | 0.2 µM |  |  | 
10 | CC(C)C[C@H](N)CC(=O)N[C@@H](CCCCN)CC(=O)N[C@H](CC(=O)N[C@H](CC(=O)N[C@@H](CCCCN)CC(=O)N[C@H](CC(=O)O)CC(C)C)CC(C)C)CC(C)C [H-(β^3-HLeu-β^3-HLys-β^3-HLeu)2-OH, H-(b^3-HLeu-b^3-HLys-b^3-HLeu)2-OH] |  | > 100 µM | > 100 µM | 
11 | CC(C)C[C@H](N)CC(=O)N[C@@H](CCCCN)CC(=O)N[C@H](CC(=O)N[C@H](CC(=O)N[C@@H](CCCCN)CC(=O)N[C@H](CC(=O)N[C@H](CC(=O)N[C@@H](CCCCN)CC(=O)N[C@H](CC(=O)N[C@H](CC(=O)N[C@@H](CCCCN)CC(=O)N[C@H](CC(=O)N[C@H](CC(=O)N[C@@H](CCCCN)CC(=O)N[C@H](CC(=O)N[C@H](CC(=O)N[C@@H](CCCCN)CC(=O)N[C@H](CC(=O)O)CC(C)C)CC(C)C)CC(C)C)CC(C)C)CC(C)C)CC(C)C)CC(C)C)CC(C)C)CC(C)C)CC(C)C)CC(C)C [H-(β^3-HLeu-β^3-HLys-β^3-HLeu)6-OH, H-(b^3-HLeu-b^3-HLys-b^3-HLeu)6-OH] |  |  | 0.081 µM | HD50+ [3]: 0.081
12 | Magainin 2 | 5 µM |  |  | 
13 | CC(C)C[C@@H](CC(=O)O)NC(=O)C[C@H](CCCCN)NC(=O)C[C@@H](NC(=O)C[C@H](CC(C)C)NC(=O)C[C@H](CCCCN)NC(=O)C[C@@H](NC(=O)C[C@H](CC(C)C)NC(=O)C[C@H](CCCCN)NC(=O)C[C@@H](NC(=O)OCC1c2ccccc2-c2ccccc21)C(C)C)C(C)C)C(C)C [Fmoc-(β^3-HVal-β^3-HLys-β^3-HLeu)3-OH, Fmoc-(b^3-HVal-b^3-HLys-b^3-HLeu)3-OH] |  | 15 µM | 6.3 µM | HD50+ [3]: 6.3 µM
14 | CC(C)C[C@H](N)CC(=O)N[C@@H](CCCCN)CC(=O)N[C@H](CC(=O)N[C@H](CC(=O)N[C@@H](CCCCN)CC(=O)N[C@H](CC(=O)N[C@H](CC(=O)N[C@@H](CCCCN)CC(=O)N[C@H](CC(=O)O)CC(C)C)CC(C)C)CC(C)C)CC(C)C)CC(C)C [H-(β^3-HLeu-β^3-HLys-β^3-HLeu)3-OH, H-(b^3-HLeu-b^3-HLys-b^3-HLeu)3-OH] |  | 35 µM | > 100 µM | 
15 | Magainin 1 (GIGKFLHSAGKFGKAFVGEIMKS; Magainin-1; UniProt P11006 37-59, looked up) [known polycationic natural peptide (frog skin)] | 12 µM |  |  | 
16 | CC(C)C[C@@H](CC(=O)O)NC(=O)C[C@H](CCCCN)NC(=O)C[C@@H](NC(=O)C[C@H](CC(C)C)NC(=O)C[C@H](CCCCN)NC(=O)C[C@@H](N)C(C)C)C(C)C [H-(β^3-HVal-β^3-HLys-β^3-HLeu)2-OH, H-(b^3-HVal-b^3-HLys-b^3-HLeu)2-OH] |  | > 100 µM | > 100 µM | 
17 | Cecropin B (KWKVFKKIEKMGRNIRNGIVKAGPAIAVLGEAKAL; ends and bridges not checked; UniProt P01508 27-61, looked up) [known polycationic natural peptide] | 0.1 µM |  |  | 
18 | CC(C)C[C@H](N)CC(=O)N[C@@H](CCCCN)CC(=O)N[C@H](CC(=O)N[C@H](CC(=O)N[C@@H](CCCCN)CC(=O)N[C@H](CC(=O)N[C@H](CC(=O)N[C@@H](CCCCN)CC(=O)N[C@H](CC(=O)N[C@H](CC(=O)N[C@@H](CCCCN)CC(=O)N[C@H](CC(=O)O)CC(C)C)CC(C)C)CC(C)C)CC(C)C)CC(C)C)CC(C)C)CC(C)C [H-(β^3-HLeu-β^3-HLys-β^3-HLeu)4-OH, H-(b^3-HLeu-b^3-HLys-b^3-HLeu)4-OH] |  | 1.7 µM | 2.6 µM | HD50+ [3]: 2.6 µM
